Experimental data taken from ChEMBL document CHEMBL4689842, “EUbOPEN Chemogenomics Library wave 1” (2021).

System: Fibroblast
Assay: Incucyte cell viability with human fibroblast; further: filed as whole numbers so only -1 and 0 and 1 occur
Type: toxicity, cell-based
Conditions: 10 µM, compound concentration 10 uM
[1] = 0 h, replicate number 1, timepoint 0 hours
[2] = 6 h, replicate number 1, timepoint 6 hours
[3] = 12 h, replicate number 1, timepoint 12 hours
[4] = 18 h, replicate number 1, timepoint 18 hours
[5] = 24 h, replicate number 1, timepoint 24 hours
[6] = 24 h, replicate number 2, timepoint 24 hours
[7] = 0 h, replicate number 2, timepoint 0 hours
[8] = 6 h, replicate number 2, timepoint 6 hours
[9] = 12 h, replicate number 2, timepoint 12 hours
[10] = 18 h, replicate number 2, timepoint 18 hours

SMILES	Growth Rate [1]	Growth Rate [2]	Growth Rate [3]	Growth Rate [4]	Growth Rate [5]	Growth Rate [6]	Growth Rate [7]	Growth Rate [8]	Growth Rate [9]	Growth Rate [10]
O=C(Nc1cccnn1)N1CCC(=Cc2cccc(Oc3ccc(C(F)(F)F)cn3)c2)CC1	0	0	0	0	0	1	–	–	–	–
COc1cc2ncnc(Nc3ccc(F)c(Cl)c3)c2cc1NC(=O)/C=C/CN1CCCCC1 [DACOMITINIB ANHYDROUS]	–	0	0	0	0	–	1	–	–	–
CCNc1cc(N[C@H]2CC[C@H](O)CC2)nc(Nc2ccc3c(ccn3Cc3ccccc3)c2)n1	–	0	0	0	0	–	–	–	–	–
COC(=N)c1nc2ccc3ncnc(Nc4ccc(OC)cc4F)c3c2s1	0	–	1	1	0	–	–	–	–	–
C=C1/C(=C\C=C2/CCC[C@]3(C)[C@@H]([C@H](C)/C=C/[C@H](C)C(C)C)CC[C@@H]23)C[C@@H](O)C[C@@H]1O [DOXERCALCIFEROL]	0	–	1	1	0	–	–	0	0	0
CNC(=O)c1ccc(Nc2nc(OC3CCCC3)c3c(-c4ccc5nc(C)oc5c4)c[nH]c3n2)c(OC)c1	0	–	0	0	0	–	–	0	–	–
CN1CCN(C(=O)C(C)(C)c2ccc(C(=O)Nc3cn4cc(-c5ccncc5)ccc4n3)cc2)CC1 [T3-CLK]	–	–	–	1	1	–	0	–	–	–
S=C(NCCCc1c[nH]cn1)NCCCN(Cc1ccc(Cl)c(Cl)c1)c1ccc(Br)cn1	0	0	0	0	0	–	–	–	–	–
O=C(Nc1ccc(-n2nc(-c3cccnc3)cc2C(F)(F)F)cn1)c1ccc(-c2ccccc2)c(F)c1 [BI 2049]	0	0	0	0	0	–	–	–	–	–
CCOc1cc2ncc(C#N)c(Nc3ccc(OCc4ccccn4)c(Cl)c3)c2cc1NC(=O)/C=C/CN(C)C [NERATINIB]	0	–	1	0	0	1	–	–	–	–
Cl.O=C(c1ccc(Nc2nccc(-c3cc4ccccc4s3)n2)cc1)N1CCC(N2CCCC2)CC1	0	0	0	0	0	–	–	–	–	–
CCn1cc(-c2ccnc3[nH]c(-c4cccc(CN(C)C)c4)cc23)c(-c2ccc(NC(=O)N(C)C)cc2)n1 [GSK-1070916]	0	1	0	0	0	–	–	–	1	–
C[C@H]1Oc2cc(cnc2N)-c2c(nn(C)c2C#N)CN(C)C(=O)c2ccc(F)cc21 [LORLATINIB]	–	0	0	0	0	–	0	–	–	–
O=C1NC(=O)C(c2cnc3ccccn23)=C1c1cn2c3c(cc(F)cc13)CN(C(=O)N1CCCCC1)CC2 [LY-2090314]	–	0	0	0	0	–	1	–	–	–
Cc1cn(-c2cc(NC(=O)c3ccc(C)c(Nc4nccc(-c5cccnc5)n4)c3)cc(C(F)(F)F)c2)cn1 [NILOTINIB]	0	0	0	0	0	–	–	–	–	–
CN(C)C(=O)C(CCN1CCC(O)(c2ccc(Cl)cc2)CC1)(c1ccccc1)c1ccccc1.Cl [LOPERAMIDE HYDROCHLORIDE]	–	0	0	0	0	–	–	–	–	–
NC(=O)c1cccc(-c2cc(Nc3ccc(OC(F)(F)F)cc3)ncn2)c1	1	0	0	0	0	1	0	1	1	1
O=C(Nc1ccc(Cl)cc1)Nc1cccc(-c2cccc(N3CCCC3)n2)c1	0	0	0	0	0	–	–	–	–	–
O=C1N/C(=N/c2ccccc2F)S/C1=C\c1ccc(C(=O)O)cc1	–	–	–	–	0	–	–	–	–	–
COc1cc(N2CCC(N3CCN(C)CC3)CC2)ccc1Nc1ncnc(Nc2ccccc2S(=O)(=O)C(C)C)n1 [ASP-3026]	–	0	0	0	0	–	0	–	–	–
CCCn1c(=O)c2[nH]c(-c3cnn(Cc4cccc(C(F)(F)F)c4)c3)nc2n(CC)c1=O [GS 6201]	0	–	–	1	1	–	–	–	–	–
Cl.Oc1ccc2c3c1O[C@H]1c4[nH]c5c(c4C[C@@]4(O)[C@@H](C2)N(CC2CC2)CC[C@]314)C[C@@]1(O)[C@H]2Cc3ccc(O)c4c3[C@@]1(CCN2CC1CC1)[C@H]5O4	0	0	0	0	0	1	1	–	1	–
COc1cc(N2CCN(C)CC2)ccc1Nc1ncc2c(n1)N(C)c1ccccc1C(=O)N2C	0	–	0	1	1	–	–	–	–	–
CCN1CCN(c2ccc(Nc3cc(N(C)C(=O)Nc4c(Cl)c(OC)cc(OC)c4Cl)ncn3)cc2)CC1 [INFIGRATINIB]	0	1	1	0	0	–	–	–	–	–
